Molecular target: Recombinant human PDE4B (Homo sapiens (Human), UniProt Q07343)
Assay: Inhibitory activity against PDE 4B in vitro (fluorescence polarization, Transcreener AMP2/GMP2)
Type: biochemical
Details: 1 μM cAMP
Experimental: Inhibitory activity of the compounds against PDE 4B
The enzyme activity was indicated by measuring the AMP/GMP expression and tracing AMP/GMP antibody binding based on fluorescence polarization in the biological assay.
10 mM Tris-HCl (pH 7.5), 5 mM MgCl2, 0.01% Brij 35, 1 mM DTT and 1% DMSO.
Recombinant human PDE4B (Gen accession number: NM_002600; amino acid 305 end) was expressed by baculovirus in Sf9 insect cells using an N-terminal GST tag. MW=78 kDa.
Transcreener® AMP2/GMP2 antibody and AMP2/GMP2 AlexaFluor633 tracer
i) Recombinant human PDE4B and the enzyme substrate (1 μM cAMP) were dissolved in the newly-prepared buffer solution, respectively.
ii) The PDE4B buffer solution defined as above was transferred into the reaction wells.
iii) The compound which was dissolved in 100% DMSO was added to the reaction wells of the PDE4B buffer solution by ultrasonic oscillator (echo 550; nanoliter range) and incubated at room temperature for 10 minutes.
iv) The enzymatic buffer solution was then added to the reaction wells defined as above to initiate the reaction.
v) The reaction was incubated at room temperature for 1 hour.
vi) The reaction was terminated by adding detecting mixture (Transcreener® AMP2/GMP2 antibody and AMP2/GMP2 AlexaFluor633 tracer) and incubated for 90 minutes with slowly mixing. The measurement range of fluorescence polarization is Ex/Em=620/688.
The fluorescence polarization signal was converted into nM according to the AMP/GMP standard curve and the percent enzyme activity relative to DMSO calculated by Excel. GraphPad Prism was used to plot the curves (Drawing Medicine Icon).

Recombinant human PDE4B, sequence (Q07343 305-736 limits assumed): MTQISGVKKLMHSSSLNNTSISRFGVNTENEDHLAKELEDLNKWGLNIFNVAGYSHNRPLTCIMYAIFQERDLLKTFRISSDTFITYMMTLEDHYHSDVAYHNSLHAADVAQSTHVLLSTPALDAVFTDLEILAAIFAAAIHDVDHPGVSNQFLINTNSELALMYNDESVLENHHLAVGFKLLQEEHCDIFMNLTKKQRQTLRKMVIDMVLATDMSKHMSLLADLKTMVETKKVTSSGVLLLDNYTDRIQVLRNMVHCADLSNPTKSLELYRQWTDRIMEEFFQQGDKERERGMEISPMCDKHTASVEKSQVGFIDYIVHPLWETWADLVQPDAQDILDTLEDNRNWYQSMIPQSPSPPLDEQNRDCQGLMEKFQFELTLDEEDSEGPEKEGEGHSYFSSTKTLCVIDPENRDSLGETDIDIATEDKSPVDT

Compound | IC50
CCOc1cc([C@@H](CS(C)(=O)=O)n2c(=O)n(Cc3nccc(C)n3)c3cc(Br)cnc32)ccc1OC [WX054] | 6.9 nM
CCOc1cc([C@@H](CS(C)(=O)=O)n2c(=O)[nH]c3cc(-c4nccnc4C)cnc32)ccc1OC [WX038] | 14.5 nM
CCOc1cc([C@@H](CS(C)(=O)=O)n2c(=O)[nH]c3cc(C#N)cnc32)ccc1OC [WX022] | 26.5 nM
CCOc1cc([C@@H](CS(C)(=O)=O)n2c(=O)[nH]c3cc(-c4ccncc4)cnc32)ccc1OC [WX035] | 15.5 nM
CCOc1cc([C@@H](CS(C)(=O)=O)n2c(=O)[nH]c3cc(-c4ncccc4F)cnc32)ccc1OC [WX037] | 10.2 nM
CCOc1cc([C@@H](CS(C)(=O)=O)n2c(=O)[nH]c3cc(Cl)cnc32)ccc1OC [WX001] | 9.48 nM
CCOc1cc([C@@H](CS(C)(=O)=O)n2c(=O)[nH]c3cc(F)cnc32)ccc1OC [WX003] | 10.6 nM
CCOc1cc([C@@H](CS(C)(=O)=O)n2c(=O)n(Cc3cncc(C)n3)c3cc(Br)cnc32)ccc1OC [WX055] | 6.99 nM
CCOc1cc([C@@H](CS(C)(=O)=O)n2c(=O)n(CC(F)(F)F)c3cc(Cl)cnc32)ccc1OC [WX048] | 19.8 nM
CCOc1cc([C@@H](CS(C)(=O)=O)n2c(=O)[nH]c3cc(-c4cncnc4)cnc32)ccc1OC [WX027] | 19.1 nM
CCOc1cc([C@@H](CS(C)(=O)=O)n2c(=O)n(CC(F)F)c3cc(Cl)cnc32)ccc1OC [WX047] | 41.6 nM
CCOc1cc([C@@H](CS(C)(=O)=O)n2c(=O)[nH]c3cc(-n4ccccc4=O)cnc32)ccc1OC [WX021] | 26.1 nM
COc1ccc(C(CS(C)(=O)=O)n2c(=O)[nH]c3c(-c4ccccc4F)ccnc32)cc1OC (single isomer, unassigned) [WX072] | 24.6 nM
CCOc1cc(C(CS(C)(=O)=O)N2C(=O)Cc3cc(Br)cnc32)ccc1OC (centres unmarked) [WX069] | 47.8 nM
CCOc1cc([C@@H](CS(C)(=O)=O)n2c(=O)n(C3CC3)c3cc(Br)cnc32)ccc1OC [WX045] | 6.5 nM
CCOc1cc([C@@H](CS(C)(=O)=O)n2c(=O)[nH]c3cc(-c4cscn4)cnc32)ccc1OC [WX036] | 6.27 nM

Compound | IC50
CCOc1cc([C@@H](CS(C)(=O)=O)n2c(=O)n(CC(F)F)c3cc(F)cnc32)ccc1OC [WX049] | 90.7 nM
CCOc1cc([C@@H](CS(C)(=O)=O)n2c(=O)[nH]c3cc(C)cnc32)ccc1OC [WX020] | 65.8 nM
CCOc1cc([C@@H](CS(C)(=O)=O)n2c(=O)[nH]c3cc(C4=CCN(C(=O)OC(C)(C)C)CC4)cnc32)ccc1OC [WX040] | 10.4 nM
CCOc1cc([C@@H](CS(C)(=O)=O)n2c(=O)n(-c3ccccc3)c3cc(Br)cnc32)ccc1OC [WX044] | 26.6 nM
CCOc1cc([C@@H](CS(C)(=O)=O)n2c(=O)[nH]c3cc(C(F)(F)F)cnc32)ccc1OC [WX002] | 5.66 nM
CCOc1cc([C@@H](CS(C)(=O)=O)n2c(=O)[nH]c3cc(-c4nccc(C)n4)cnc32)ccc1OC [WX028] | 9.7 nM
CCOc1cc([C@@H](CS(C)(=O)=O)n2c(=O)n(CCS(C)(=O)=O)c3cc(Br)cnc32)ccc1OC [WX052] | 8.2 nM
CCOc1cc([C@@H](CS(C)(=O)=O)n2c(=O)n(C)c3cc(OC)cnc32)ccc1OC [WX041] | 16.4 nM
CCOc1cc([C@@H](CS(C)(=O)=O)n2c(=O)[nH]c3cc(-c4nnccc4C)cnc32)ccc1OC [WX039] | 21.7 nM
CCOc1cc([C@@H](CS(C)(=O)=O)n2c(=O)n(CCOC)c3cc(Br)cnc32)ccc1OC [WX051] | 9.1 nM
CCOc1cc(C(CS(C)(=O)=O)n2c(=O)oc3cc(Br)cnc32)ccc1OC (centres unmarked) [WX070] | 73.8 nM
CCOc1cc([C@@H](CS(C)(=O)=O)n2c(=O)[nH]c3cc(Br)cnc32)ccc1OC [WX004] | 7.09 nM
CCOc1cc([C@@H](CS(C)(=O)=O)n2c(=O)[nH]c3cc(CO)cnc32)ccc1OC [WX023] | 68.1 nM
CCOc1cc([C@@H](CS(C)(=O)=O)n2c(=O)n(C3CC3)c3cc(-c4ccccc4F)cnc32)ccc1OC [WX046] | 7.79 nM
CCOc1cc([C@@H](CS(C)(=O)=O)n2c(=O)n(C)c3cc(Br)cnc32)ccc1OC [WX050] | 11 nM
CCOc1cc([C@@H](CS(C)(=O)=O)n2c(=O)[nH]c3cc(-c4cccnc4)cnc32)ccc1OC [WX025] | 9.53 nM

The next compounds have a lower IC50 than those just listed; values first:

IC50 | Compound
5.18 nM | CCOc1cc([C@@H](CS(C)(=O)=O)n2c(=O)[nH]c3cc(-c4c(C)ncnc4C)cnc32)ccc1OC [WX034]
0.671 nM | CCOc1cc([C@@H](CS(C)(=O)=O)n2c(=O)[nH]c3cc(-c4c(F)cccc4F)cnc32)ccc1OC [WX033]
3.38 nM | CCOc1cc([C@@H](CS(C)(=O)=O)n2c(=O)[nH]c3cc(-c4cn[nH]c4)cnc32)ccc1OC [WX019]
1.99 nM | CCOc1cc([C@@H](CS(C)(=O)=O)n2c(=O)n(CC)c3cc(-c4ccccc4F)cnc32)ccc1OC [WX058]
0.391 nM | CCOc1cc([C@@H](CS(C)(=O)=O)n2c(=O)[nH]c3cc(-c4ccccc4C(F)(F)F)cnc32)ccc1OC [WX018]
1.04 nM | CCOc1cc([C@@H](CS(C)(=O)=O)n2c(=O)[nH]c3cc(-c4ccccc4C(C)C)cnc32)ccc1OC [WX015]
5.03 nM | CCOc1cc([C@@H](CS(C)(=O)=O)n2c(=O)[nH]c3cc(C4CC4)cnc32)ccc1OC [WX005]
1.03 nM | CCOc1cc(C(CS(C)(=O)=O)n2c(=O)[nH]c3cc(-c4ccccc4)cnc32)ccc1OC(F)F (centres unmarked) [WX074]
0.994 nM | CCOc1cc([C@@H](CS(C)(=O)=O)n2c(=O)[nH]c3cc(-c4cccc(F)c4F)cnc32)ccc1OC [WX013]
< 0.5 nM | CCOc1cc([C@@H](CS(C)(=O)=O)n2c(=O)[nH]c3cc(-c4ccccc4Cl)cnc32)ccc1OC [WX016]
0.641 nM | CCOc1cc([C@@H](CS(C)(=O)=O)n2c(=O)[nH]c3cc(-c4ccccc4OC)cnc32)ccc1OC [WX017]
3.4 nM | CCOc1cc([C@@H](CS(C)(=O)=O)n2c(=O)[nH]c3cc(-c4cccc(F)c4)cnc32)ccc1OC [WX011]
< 0.5 nM | CCOc1cc([C@@H](CS(C)(=O)=O)n2c(=O)[nH]c3cc(-c4ccccc4C)cnc32)ccc1OC [WX014]
5.42 nM | CCOc1cc([C@@H](CS(C)(=O)=O)n2c(=O)[nH]c3cc(Oc4ncccn4)cnc32)ccc1OC [WX042]
0.86 nM | CCOc1cc([C@@H](CS(C)(=O)=O)n2c(=O)[nH]c3cc(-c4ccccc4F)cnc32)ccc1OC [WX009]
< 0.5 nM | CCOc1cc(C(CS(C)(=O)=O)n2c(=O)[nH]c3c(C)c(-c4ccccc4F)cnc32)ccc1OC(F)F (centres unmarked) [WX076]
2.02 nM | CCOc1cc([C@@H](CS(C)(=O)=O)n2c(=O)n(CCO)c3cc(-c4ccccc4F)cnc32)ccc1OC [WX059]
3.9 nM | CCOc1cc([C@@H](CS(C)(=O)=O)n2c(=O)[nH]c3cc(-c4ccc(F)cc4)cnc32)ccc1OC [WX012]

IC50 | Compound
4.89 nM | CCOc1cc([C@@H](CS(C)(=O)=O)n2c(=O)[nH]c3cc(CC(C)C)cnc32)ccc1OC [WX008]
2.53 nM | CCOc1cc([C@@H](CS(C)(=O)=O)n2c(=O)[nH]c3cc(Oc4ccccc4C(F)(F)F)cnc32)ccc1OC [WX043]
< 0.5 nM | CCOc1cc(C(CS(C)(=O)=O)n2c(=O)[nH]c3cc(-c4ccccc4F)cnc32)ccc1OC(F)F (centres unmarked) [WX073]
1.49 nM | CCOc1cc([C@@H](CS(C)(=O)=O)n2c(=O)n(Cc3ccccc3F)c3cc(Br)cnc32)ccc1OC [WX053]
3.4 nM | CCOC(=O)Cn1c(=O)n([C@H](CS(C)(=O)=O)c2ccc(OC)c(OCC)c2)c2ncc(Br)cc21 [WX056]
2.6 nM | CCOc1cc([C@@H](CS(C)(=O)=O)n2c(=O)[nH]c3cc(-c4ccccc4)cnc32)ccc1OC [WX010]
3.48 nM | CCOc1cc([C@@H](CS(C)(=O)=O)n2c(=O)n(C(C)C)c3cc(-c4ccccc4F)cnc32)ccc1OC [WX060]
0.234 nM | CCOc1cc([C@@H](CS(C)(=O)=O)n2c(=O)[nH]c3cc(-c4ccccc4C#N)cnc32)ccc1OC [WX032]
2.23 nM | CCOc1cc([C@@H](CS(C)(=O)=O)n2c(=O)[nH]c3c(C)c(-c4ccccc4)cnc32)ccc1OC [WX064]
2.24 nM | CCOc1cc([C@@H](CS(C)(=O)=O)n2c(=O)[nH]c3c(Cc4ccccc4F)ccnc32)ccc1OC [WX068]
1.8 nM | CCOc1cc([C@@H](CS(C)(=O)=O)n2c(=O)[nH]c3cc(Cc4ccccc4F)cnc32)ccc1OC [WX006]
0.989 nM | CCOc1cc([C@@H](CS(C)(=O)=O)n2c(=O)n(CC#N)c3cc(-c4ccccc4F)cnc32)ccc1OC [WX061]
2.7 nM | CCOc1cc([C@@H](CS(C)(=O)=O)n2c(=O)n(Cc3ccccc3F)c3cc(Cc4ccccc4F)cnc32)ccc1OC [WX024]
4.51 nM | CCOc1cc([C@@H](CS(C)(=O)=O)n2c(=O)[nH]c3cc(-c4ncccn4)cnc32)ccc1OC [WX026]
1.01 nM | CCOc1cc(C(CS(C)(=O)=O)n2c(=O)[nH]c3c(C)c(-c4ccccc4)cnc32)ccc1OC(F)F (centres unmarked) [WX077]
0.74 nM | CCOc1cc(C(CS(C)(=O)=O)n2c(=O)oc3cc(-c4ccccc4F)cnc32)ccc1OC (centres unmarked) [WX071]
5.39 nM | CCOc1cc(C(CS(C)(=O)=O)n2c(=O)[nH]c3c(C)c(C)cnc32)ccc1OC(F)F (centres unmarked) [WX075]
2.81 nM | CCOc1cc([C@@H](CS(C)(=O)=O)n2c(=O)[nH]c3cc(C=C(C)C)cnc32)ccc1OC [WX007]
